Measurements published in ChEMBL document CHEMBL3301546, “MMV Malaria Box yeast growth screening”.

Columns and labels:
Assay type in all cases: functional
[1] = tested on: Saccharomyces cerevisiae; assay: MMV: Growth assays were conducted using the prototrophic S. cerevisiae strain JHY222. Each MMV compound (0.1 mM) was tested in minimal media containing ethanol and glycerol as carbon sources (Yeast Nitrogen Base, Ethanol, Glycerol; YNBEG). The growth rate in the presence of each MMV compound was calculated as follows: (i) the first 10 OD readings were averaged and subtracted from all OD readings of the corresponding curve to set the baseline of the growth curve to zero, and (ii) the area under the curve (AUC) was then calculated as the sum of all OD readings. […] A relative growth value was calculated as follows: AUC(DRUG) - AUC(DMSO)/AUC(DMSO); where AUC(DMSO) represents growth measured in a DMSO control well that was on the same microtiter plate of the drug-treated culture.
[2] = tested on: Saccharomyces cerevisiae; assay: (§1) MMV: Growth assays were conducted using the prototrophic S. cerevisiae strain JHY222. Each MMV compound (0.1 mM) was tested in rich media containing dextrose as a carbon source (Yeast Extract, Peptone, Dextrose; YPD). The growth rate in the presence of each MMV compound was calculated as follows: (i) the first 10 OD readings were averaged and subtracted from all OD readings of the corresponding curve to set the baseline of the growth curve to zero, and (ii) the area under the curve (AUC) was then calculated as the sum of all OD readings. […] A relative growth value was calculated as follows: AUC(DRUG) - AUC(DMSO)/AUC(DMSO); where AUC(DMSO) represents growth measured in a DMSO control well that was on the same microtiter plate of the drug-treated culture.
[3] = tested on: Saccharomyces cerevisiae; assay: as §1, with “minimal” for “rich”, “Nitrogen Base,” for “Extract, Peptone,”, “YNBD).” for “YPD).”

Structure (SMILES) | Relative Growth [1] | Relative Growth [2] | Relative Growth [3]
O=C(Nc1ccccc1O)c1ccc(Oc2cccc(C(=O)Nc3ccccc3O)c2)cc1 | -0.0198 | -0.023 | 0.0291
COc1ccc(C(=O)Nc2ccc3nc(N4CCCCC4)cc(C)c3c2)cc1OC | -0.4538 | -0.0828 | -0.1419
COc1ccc(N2CCN(C(CNC(=O)C3CCCCC3)c3ccc4c(c3)OCO4)CC2)cc1 (stereo unspecified) | -0.124 | -0.0299 | -0.0986
CCC(C)NCC(O)(c1ccc(Cl)cc1)c1ccc(Cl)cc1 (stereo unspecified) | -0.0906 | 0.0173 | 0.042
Cc1[nH]c(-c2ccc(F)cc2)cc1C(=O)NC1CCN(Cc2ccccc2)CC1 | 0.2181 | 0.0962 | 0.023
COc1ccc(CCN2CCC(CN(C)Cc3cnn(-c4ccccc4)c3)CC2)cc1 | -0.844 | 0.0613 | -0.2117
COCCNC(=O)c1ccc(OC2CCN(Cc3ccc(F)c(F)c3)CC2)c(Cl)c1 | 0.0235 | 0.1615 | -0.0136
O=C(NC1CCCC1)c1ccc(N2CCC(NCc3cccc(C(F)(F)F)c3)CC2)cc1 | -0.7428 | 0.09 | -0.054
CCOc1cc(Br)c(C(C)NC(=O)c2cccc(OC)c2)cc1OCC (stereo unspecified) | -0.5924 | 0.0654 | -0.0511
CC(C)=CCN1CCC(C(=O)Nc2ccc(-c3nc4ccccc4[nH]3)cc2)CC1 | 0.1138 | -0.0484 | 0.0091
CCN(CC)CCn1c(=N)n(CC(O)c2ccc(Cl)c(Cl)c2)c2ccccc21.Cl (stereo unspecified) | 0.1274 | -0.0663 | 0.0285
CCOc1cc(Cl)c(C(C)NC(=O)c2cccc(OC)c2)cc1OCC (stereo unspecified) | -0.0623 | -0.0293 | -0.1186
O=C(CCc1ccco1)NC1CCN(CC2(c3ccc(Cl)cc3)CCC2)CC1 | 0.0483 | -0.0017 | 0.003
FC(F)(F)c1cccc(Nc2nc(-c3ccccc3)nc3ncccc23)c1 | -0.0611 | 0.1402 | -0.0599
CCN1CCN(c2cc(C)c3cc(NC(=O)c4ccc(OC)c(OC)c4)ccc3n2)CC1 | -0.0282 | -0.0203 | -0.0518
Cc1ccc(Cl)cc1N1CCN(CCCNC(=O)C2CCN(c3nc4ccccc4[nH]3)CC2)CC1 | 0.0403 | -0.0122 | 0.0248
COCCN(C(=O)Cc1cccs1)C(C(=O)NCc1ccc(OC)cc1)c1ccc(C(C)C)cc1 (stereo unspecified) | 0.2007 | 0.0044 | 0.0051
Cc1ccc(CSCc2ccc(C(=O)NC3CC3)o2)cc1 | -0.1982 | 0.0613 | -0.0643
CCOc1cc(Cl)c(C(C)NC(=O)c2ccccc2)cc1OCC (stereo unspecified) | -0.1365 | 0.0477 | -0.0221
O=C(c1ccccc1F)N(Cc1ccc(Cl)cc1)c1ccccn1 | -0.0049 | -0.0537 | 0.0025
O=C(Nc1ccc(CN2CCOCC2)cc1)c1ccc(-c2ccc(Br)cc2)o1 | -0.1653 | -0.0599 | -0.3783

Structure (SMILES) | Relative Growth [1] | Relative Growth [2] | Relative Growth [3]
CC(=O)NCCc1nc2ccccc2n1Cc1ccc(C(C)C)cc1 | 0.1937 | 0.0716 | -0.0851
CN(C)c1ccc(-c2nc3cc(N)ccc3[nH]2)cc1 | 0.1829 | 0.2129 | -0.0068
O=C(CSc1ccc2nnc(-c3cccc(F)c3)n2n1)Nc1ccc2c(c1)OCO2 | -0.3285 | -0.0335 | -0.0662
Cc1c(C)n(Cc2ccc(F)cc2)c2ccc(C(=O)NCc3ccco3)cc12 | -1.0264 | -0.5565 | -0.1235
CC(C)(C)C(=O)Nc1ccc(C(=O)Nc2cccc(-c3nc4ccccc4[nH]3)c2)cc1 | -0.4785 | 0.0628 | -0.1639
COc1cccc(-c2nn(C)c3sc(C(=O)NCCN4CCN(c5ccccc5F)CC4)cc23)c1 | 0.0691 | 0.1401 | -0.0156
CCn1c(SCC(=O)Nc2cc(C(F)(F)F)ccc2Cl)nc2ccccc2c1=O | -0.159 | -0.0109 | -0.0156
O=C(Nc1ccc(Cl)cc1C(=O)Nc1ccncc1)c1ccc(Cl)cc1Cl | -0.1824 | 0.0512 | 0.0109
CCOc1cccc2sc(N(Cc3cccnc3)C(=O)C3CCCCC3)nc12 | -0.3394 | -0.0327 | -0.0544
CCN(CC)c1cc(C)c2cc(NC(=O)c3cccc(OC)c3)ccc2n1 | 0.0148 | 0.0048 | -0.0149
CC(C)OCc1cc(CN2CCN(c3cccc(Cl)c3)CC2)c(O)c2ncccc12 | -0.1438 | -1.0115 | -0.1654
O=C(Nc1nc(-c2ccccn2)cs1)c1ccccc1Br | 0.1503 | 0.0205 | -0.0666
O=C(Nc1ccc(F)c(Cl)c1)Nc1ccc(Cl)c(Cl)c1 | -0.9478 | -0.0686 | 0.0832
CC(O)(c1ccc(Cl)cc1)C(CN1CCCCC1)c1ccccc1.Cl (stereo unspecified) | 0.0803 | 0.0259 | -0.0009
CCCCc1ccc(NS(=O)(=O)c2cc3c4c(c2)CCN4C(=O)CC3)cc1 | 0.0701 | -0.0323 | -0.0346
CCOc1ccc(-c2nc(NC(=O)c3cccc(S(C)(=O)=O)c3)sc2C)cc1 | 0.1015 | 0.0098 | 0.0499
COc1ccccc1N1CCN(C(CNS(=O)(=O)c2ccc(Cl)cc2)c2cccnc2)CC1 (stereo unspecified) | -0.6721 | -0.173 | -0.1378
CCOc1c(Cl)cc(CNC(C)C(O)c2ccccc2)cc1OC (stereo unspecified) | 0.1383 | -0.0562 | -0.05
COc1ccc(C2Sc3ccccc3N=C3C2=C(O)c2ccccc23)cc1 (stereo unspecified) | 0.0327 | 0.0982 | -0.0473
O=C(NCC1Cc2cccc(-c3ccncc3)c2O1)c1csc2c1CCCC2 (stereo unspecified) | 0.1029 | 0.0158 | 0.0203
C=C(C)CCC(C)N1CCC(N2CCC(C(=O)NCCc3ccccc3)CC2)CC1 (stereo unspecified) | -0.0755 | -0.0567 | 0.0261
